ChEMBL document CHEMBL4715821, “Discovery of 4-ethoxy-7H-pyrrolo[2,3-d]pyrimidin-2-amines as potent, selective and orally bioavailable LRRK2 inhibitors” (Bioorg Med Chem Lett, 2018)

What was measured:
[1] = Unbound fraction in mouse brain; type: ADME, tissue-based
[2] = molecular target: Calcium/calmodulin-dependent protein kinase type II subunit alpha (Homo sapiens) (UniProt Q9UQM7); assay: Inhibition of wild-type human partial length CAMK2A (M1 to K328 residues) expressed in bacterial expression system assessed as residual activity at 1 uM by Kinomescan method relative to control
[3] = molecular target: Calcium/calmodulin-dependent protein kinase kinase 1 (Homo sapiens) (UniProt Q8N5S9); assay: Inhibition of wild-type human partial length CAMKK1 (R65 to E414 residues) expressed in bacterial expression system assessed as residual activity at 1 uM by Kinomescan method relative to control
[4] = molecular target: Casein kinase I isoform delta (Homo sapiens) (UniProt P48730); assay: Inhibition of CK1D (unknown origin) assessed as residual activity at 1 uM by Kinomescan method relative to control
[5] = molecular target: Dual specificity protein kinase CLK2 (Homo sapiens) (UniProt P49760); assay: Inhibition of wild-type human partial length CLK2 (D144 to R498 residues) expressed in bacterial expression system assessed as residual activity at 1 uM by Kinomescan method relative to control
[6] = molecular target: Beta-adrenergic receptor kinase 1 (Homo sapiens) (UniProt P25098); assay: Inhibition of wild-type human full length GRK2 (M1 to L689 residues) expressed in mammalian expression system assessed as residual activity at 1 uM by Kinomescan method relative to control
[7] = molecular target: Serine/threonine-protein kinase 10 (Homo sapiens) (UniProt O94804); assay: Inhibition of wild-type human partial length LOK (E16 to V314 residues) expressed in bacterial expression system assessed as residual activity at 1 uM by Kinomescan method relative to control
[8] = molecular target: Serine/threonine-protein kinase Nek4 (Homo sapiens) (UniProt P51957); assay: Inhibition of wild-type human full length NEK4 (M1 to F841 residues) expressed in mammalian expression system assessed as residual activity at 1 uM by Kinomescan method relative to control
[9] = molecular target: Dual specificity mitogen-activated protein kinase kinase 2 (Homo sapiens) (UniProt P36507); assay: Inhibition of wild-type human full length MEK2 (M1 to V400 residues) expressed in mammalian expression system assessed as residual activity at 1 uM by Kinomescan method relative to control
[10] = molecular target: Mitogen-activated protein kinase kinase kinase 2 (Homo sapiens) (UniProt Q9Y2U5); assay: Inhibition of MEKK2 (unknown origin) assessed as residual activity at 1 uM by Kinomescan method relative to control
[11] = molecular target: cGMP-dependent protein kinase 1 (Homo sapiens) (UniProt Q13976); assay: Inhibition of PKG1beta (unknown origin) assessed as residual activity at 1 uM by Kinomescan method relative to control
[12] = molecular target: Serine/threonine-protein kinase N2 (Homo sapiens) (UniProt Q16513); assay: Inhibition of wild-type human partial length PKN2 (E634 to C984 residues) expressed in bacterial expression system assessed as residual activity at 1 uM by Kinomescan method relative to control
[13] = molecular target: NUAK family SNF1-like kinase 2 (Homo sapiens) (UniProt Q9H093); assay: Inhibition of wild-type human partial length SNARK (P22 to A333 residues) expressed in mammalian expression system assessed as residual activity at 1 uM by Kinomescan method relative to control
[14] = molecular target: BDNF/NT-3 growth factors receptor (Homo sapiens) (UniProt Q16620); assay: Inhibition of wild-type human partial length TRKB (Q547 to G838 residues) expressed in mammalian expression system assessed as residual activity at 1 uM by Kinomescan method relative to control
[15] = molecular target: NT-3 growth factor receptor (Homo sapiens) (UniProt Q16288); assay: Inhibition of wild-type human partial length TRKC (Q531 to G825 residues) expressed in mammalian expression system assessed as residual activity at 1 uM by Kinomescan method relative to control
[16] = molecular target: Serine/threonine-protein kinase ULK2 (Homo sapiens) (UniProt Q8IYT8); assay: Inhibition of wild-type human partial length ULK2 (M1 to S301 residues) expressed in mammalian expression system assessed as residual activity at 1 uM by Kinomescan method relative to control
[17] = molecular target: T1, Mitogen-activated protein kinase kinase kinase kinase 3 (Homo sapiens) (UniProt Q8IVH8); assay: Inhibition of wild-type human partial length MAP4K3 (M1 to D301 residues) expressed in bacterial expression system assessed as residual activity at 1 uM by Kinomescan method relative to control
T1 sequence (whole entry): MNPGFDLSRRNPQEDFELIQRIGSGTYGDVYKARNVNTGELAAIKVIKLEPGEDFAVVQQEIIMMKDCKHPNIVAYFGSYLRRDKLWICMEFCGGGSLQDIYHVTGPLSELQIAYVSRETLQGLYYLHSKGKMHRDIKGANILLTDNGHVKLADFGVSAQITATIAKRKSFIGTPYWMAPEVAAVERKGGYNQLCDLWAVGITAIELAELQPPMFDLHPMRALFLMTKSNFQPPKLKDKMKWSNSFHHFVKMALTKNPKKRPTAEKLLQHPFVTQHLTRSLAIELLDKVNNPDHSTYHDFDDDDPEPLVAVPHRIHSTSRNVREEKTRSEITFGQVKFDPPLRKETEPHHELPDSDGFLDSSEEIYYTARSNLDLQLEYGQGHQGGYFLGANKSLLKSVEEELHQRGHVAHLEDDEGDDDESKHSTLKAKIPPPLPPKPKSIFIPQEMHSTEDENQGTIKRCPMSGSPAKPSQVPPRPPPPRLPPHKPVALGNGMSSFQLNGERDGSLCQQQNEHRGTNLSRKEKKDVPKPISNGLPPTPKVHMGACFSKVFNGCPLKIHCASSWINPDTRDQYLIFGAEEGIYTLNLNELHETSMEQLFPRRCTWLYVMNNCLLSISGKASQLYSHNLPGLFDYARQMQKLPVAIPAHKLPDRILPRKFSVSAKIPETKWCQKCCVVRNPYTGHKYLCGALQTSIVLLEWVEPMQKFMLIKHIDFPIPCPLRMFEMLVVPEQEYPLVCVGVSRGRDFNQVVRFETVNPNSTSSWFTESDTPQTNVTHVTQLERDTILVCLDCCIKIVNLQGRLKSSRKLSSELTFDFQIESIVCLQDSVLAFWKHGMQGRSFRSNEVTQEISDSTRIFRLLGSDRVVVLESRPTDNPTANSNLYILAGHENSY

[18] = molecular target: Serine/threonine-protein kinase LATS1 (Homo sapiens) (UniProt O95835); assay: Inhibition of wild-type human partial length LATS1 (Q678 to V1130 residues) expressed in bacterial expression system assessed as residual activity at 1 uM by Kinomescan method relative to control
[19] = molecular target: Non-receptor tyrosine-protein kinase TNK1 (Homo sapiens) (UniProt Q13470); assay: Inhibition of wild-type human full length TNK1 (M1 to P661 residues) expressed in bacterial expression system assessed as residual activity at 1 uM by Kinomescan method relative to control
[20] = molecular target: Testis-specific serine/threonine-protein kinase 3 (Homo sapiens) (UniProt Q96PN8); assay: Inhibition of wild-type human full length TSSK3 (M1 to T268 residues) expressed in mammalian expression system assessed as residual activity at 1 uM by Kinomescan method relative to control
Chain of Testis-specific serine/threonine-protein kinase 3 (Homo sapiens) (Q96PN8 whole entry, the tested form may be a part): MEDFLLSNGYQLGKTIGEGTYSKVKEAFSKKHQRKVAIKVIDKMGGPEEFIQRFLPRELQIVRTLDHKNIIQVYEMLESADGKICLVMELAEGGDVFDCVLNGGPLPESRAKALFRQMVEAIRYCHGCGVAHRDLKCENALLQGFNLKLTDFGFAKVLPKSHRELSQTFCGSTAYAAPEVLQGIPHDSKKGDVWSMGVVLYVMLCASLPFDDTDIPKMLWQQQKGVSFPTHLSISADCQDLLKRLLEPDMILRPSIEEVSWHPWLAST

Chain of NUAK family SNF1-like kinase 2 (Homo sapiens) (Q9H093 whole entry, the tested form may be a part): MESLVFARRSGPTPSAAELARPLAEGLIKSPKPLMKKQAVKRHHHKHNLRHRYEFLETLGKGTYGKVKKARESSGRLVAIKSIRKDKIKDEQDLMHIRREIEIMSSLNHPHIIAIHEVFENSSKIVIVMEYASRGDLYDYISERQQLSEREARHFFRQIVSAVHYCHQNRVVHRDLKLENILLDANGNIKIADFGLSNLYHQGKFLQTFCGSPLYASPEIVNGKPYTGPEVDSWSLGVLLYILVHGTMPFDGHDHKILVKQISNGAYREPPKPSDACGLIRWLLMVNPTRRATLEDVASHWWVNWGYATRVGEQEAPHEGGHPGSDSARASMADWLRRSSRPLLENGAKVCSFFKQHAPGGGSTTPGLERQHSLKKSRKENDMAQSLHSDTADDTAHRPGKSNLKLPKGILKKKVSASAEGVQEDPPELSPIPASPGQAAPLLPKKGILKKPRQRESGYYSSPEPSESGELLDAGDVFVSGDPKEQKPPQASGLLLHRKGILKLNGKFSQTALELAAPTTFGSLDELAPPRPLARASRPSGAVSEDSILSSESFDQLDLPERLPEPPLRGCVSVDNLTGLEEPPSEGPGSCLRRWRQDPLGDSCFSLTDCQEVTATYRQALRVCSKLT
Chain of BDNF/NT-3 growth factors receptor (Homo sapiens) (Q16620 32-822 limits assumed): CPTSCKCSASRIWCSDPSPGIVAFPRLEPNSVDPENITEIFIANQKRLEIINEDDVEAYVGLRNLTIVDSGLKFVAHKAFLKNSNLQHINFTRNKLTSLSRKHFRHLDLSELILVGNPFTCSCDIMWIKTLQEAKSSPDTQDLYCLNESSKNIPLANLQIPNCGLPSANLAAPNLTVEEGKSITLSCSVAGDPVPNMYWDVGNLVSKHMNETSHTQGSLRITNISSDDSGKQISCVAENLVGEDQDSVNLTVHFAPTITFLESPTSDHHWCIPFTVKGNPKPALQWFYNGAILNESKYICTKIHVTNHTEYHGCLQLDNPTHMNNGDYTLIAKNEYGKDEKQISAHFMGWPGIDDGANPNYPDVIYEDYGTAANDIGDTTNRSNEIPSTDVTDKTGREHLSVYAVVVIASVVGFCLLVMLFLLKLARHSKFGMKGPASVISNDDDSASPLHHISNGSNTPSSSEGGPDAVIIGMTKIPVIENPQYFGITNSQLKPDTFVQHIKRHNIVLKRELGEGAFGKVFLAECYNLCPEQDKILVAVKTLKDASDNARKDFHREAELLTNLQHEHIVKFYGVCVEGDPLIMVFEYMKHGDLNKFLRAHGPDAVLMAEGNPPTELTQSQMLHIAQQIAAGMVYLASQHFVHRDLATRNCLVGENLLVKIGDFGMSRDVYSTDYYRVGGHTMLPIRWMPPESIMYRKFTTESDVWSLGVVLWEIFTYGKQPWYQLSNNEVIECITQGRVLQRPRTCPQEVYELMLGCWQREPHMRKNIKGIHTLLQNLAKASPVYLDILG
Chain of Beta-adrenergic receptor kinase 1 (Homo sapiens) (P25098 whole entry, the tested form may be a part): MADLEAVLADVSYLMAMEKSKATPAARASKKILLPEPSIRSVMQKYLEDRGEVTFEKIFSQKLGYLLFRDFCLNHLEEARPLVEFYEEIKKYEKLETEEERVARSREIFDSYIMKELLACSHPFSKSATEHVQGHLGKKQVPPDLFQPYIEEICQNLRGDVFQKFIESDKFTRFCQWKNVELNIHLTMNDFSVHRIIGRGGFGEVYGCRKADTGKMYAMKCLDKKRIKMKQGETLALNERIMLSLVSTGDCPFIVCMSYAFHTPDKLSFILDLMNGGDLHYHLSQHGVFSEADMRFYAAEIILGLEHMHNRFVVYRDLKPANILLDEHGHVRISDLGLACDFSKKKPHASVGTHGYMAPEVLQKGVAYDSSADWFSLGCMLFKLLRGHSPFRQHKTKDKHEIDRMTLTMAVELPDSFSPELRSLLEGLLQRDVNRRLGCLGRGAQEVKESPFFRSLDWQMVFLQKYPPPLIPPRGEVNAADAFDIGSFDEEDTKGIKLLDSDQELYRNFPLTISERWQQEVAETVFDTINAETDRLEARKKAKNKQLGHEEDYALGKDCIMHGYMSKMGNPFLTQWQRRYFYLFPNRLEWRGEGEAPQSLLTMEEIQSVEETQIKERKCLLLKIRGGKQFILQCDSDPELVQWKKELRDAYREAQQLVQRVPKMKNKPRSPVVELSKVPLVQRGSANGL
Chain of Dual specificity mitogen-activated protein kinase kinase 2 (Homo sapiens) (P36507 whole entry, the tested form may be a part): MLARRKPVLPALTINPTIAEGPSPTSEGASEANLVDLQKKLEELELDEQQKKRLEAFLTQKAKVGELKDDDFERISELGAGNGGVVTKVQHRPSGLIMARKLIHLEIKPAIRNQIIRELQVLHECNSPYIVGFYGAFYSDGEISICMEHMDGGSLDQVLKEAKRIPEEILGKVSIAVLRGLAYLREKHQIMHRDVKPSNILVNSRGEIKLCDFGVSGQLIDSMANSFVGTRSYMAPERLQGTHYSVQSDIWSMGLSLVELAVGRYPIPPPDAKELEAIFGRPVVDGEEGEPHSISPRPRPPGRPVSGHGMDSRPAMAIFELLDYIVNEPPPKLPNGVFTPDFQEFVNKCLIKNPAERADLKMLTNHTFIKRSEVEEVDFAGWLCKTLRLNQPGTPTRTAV
Chain of Dual specificity protein kinase CLK2 (Homo sapiens) (P49760 whole entry, looked up, the tested form may be a part): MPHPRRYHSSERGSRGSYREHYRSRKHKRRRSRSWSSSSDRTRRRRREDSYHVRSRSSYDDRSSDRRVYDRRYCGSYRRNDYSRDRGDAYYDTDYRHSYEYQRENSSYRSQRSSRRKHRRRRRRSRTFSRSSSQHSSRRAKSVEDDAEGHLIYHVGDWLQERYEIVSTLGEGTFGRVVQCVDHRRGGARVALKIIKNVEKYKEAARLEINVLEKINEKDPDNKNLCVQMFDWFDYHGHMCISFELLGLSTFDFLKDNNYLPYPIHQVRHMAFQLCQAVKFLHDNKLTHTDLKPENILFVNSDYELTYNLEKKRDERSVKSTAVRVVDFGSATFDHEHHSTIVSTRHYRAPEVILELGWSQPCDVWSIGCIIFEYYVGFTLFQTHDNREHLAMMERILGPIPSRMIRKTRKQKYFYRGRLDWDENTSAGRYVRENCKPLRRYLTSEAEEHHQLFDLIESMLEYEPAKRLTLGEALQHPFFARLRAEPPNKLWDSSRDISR
Chain of Serine/threonine-protein kinase LATS1 (Homo sapiens) (O95835 whole entry, the tested form may be a part): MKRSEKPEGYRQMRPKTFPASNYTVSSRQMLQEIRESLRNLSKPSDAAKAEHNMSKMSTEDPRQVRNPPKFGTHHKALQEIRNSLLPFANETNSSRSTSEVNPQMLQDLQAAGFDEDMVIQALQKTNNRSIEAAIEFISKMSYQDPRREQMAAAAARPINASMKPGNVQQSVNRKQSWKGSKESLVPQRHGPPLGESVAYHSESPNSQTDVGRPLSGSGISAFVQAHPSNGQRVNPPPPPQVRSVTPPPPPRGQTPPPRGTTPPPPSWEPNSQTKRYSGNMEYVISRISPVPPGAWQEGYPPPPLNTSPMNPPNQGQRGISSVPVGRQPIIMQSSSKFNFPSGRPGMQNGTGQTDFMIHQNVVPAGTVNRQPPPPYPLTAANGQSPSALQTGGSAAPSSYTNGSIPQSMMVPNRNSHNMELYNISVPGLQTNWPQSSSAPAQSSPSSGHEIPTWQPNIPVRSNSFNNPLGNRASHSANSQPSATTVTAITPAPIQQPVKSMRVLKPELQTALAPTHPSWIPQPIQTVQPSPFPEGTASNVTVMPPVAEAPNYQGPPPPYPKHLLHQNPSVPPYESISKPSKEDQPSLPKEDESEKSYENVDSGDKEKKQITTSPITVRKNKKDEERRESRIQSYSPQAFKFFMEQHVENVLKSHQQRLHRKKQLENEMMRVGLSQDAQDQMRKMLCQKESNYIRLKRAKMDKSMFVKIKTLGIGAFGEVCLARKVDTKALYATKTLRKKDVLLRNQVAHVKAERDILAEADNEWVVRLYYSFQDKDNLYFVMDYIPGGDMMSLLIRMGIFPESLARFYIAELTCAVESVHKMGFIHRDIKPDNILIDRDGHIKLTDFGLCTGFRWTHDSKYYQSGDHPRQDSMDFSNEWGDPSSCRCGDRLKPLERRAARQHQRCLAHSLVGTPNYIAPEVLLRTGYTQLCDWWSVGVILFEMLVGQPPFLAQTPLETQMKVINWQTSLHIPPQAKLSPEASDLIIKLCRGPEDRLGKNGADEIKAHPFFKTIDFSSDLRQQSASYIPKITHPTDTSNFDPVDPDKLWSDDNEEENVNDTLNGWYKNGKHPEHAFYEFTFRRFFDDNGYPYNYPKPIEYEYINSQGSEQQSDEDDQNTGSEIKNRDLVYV
Chain of Calcium/calmodulin-dependent protein kinase kinase 1 (Homo sapiens) (Q8N5S9 whole entry, looked up, the tested form may be a part, canonical isoform): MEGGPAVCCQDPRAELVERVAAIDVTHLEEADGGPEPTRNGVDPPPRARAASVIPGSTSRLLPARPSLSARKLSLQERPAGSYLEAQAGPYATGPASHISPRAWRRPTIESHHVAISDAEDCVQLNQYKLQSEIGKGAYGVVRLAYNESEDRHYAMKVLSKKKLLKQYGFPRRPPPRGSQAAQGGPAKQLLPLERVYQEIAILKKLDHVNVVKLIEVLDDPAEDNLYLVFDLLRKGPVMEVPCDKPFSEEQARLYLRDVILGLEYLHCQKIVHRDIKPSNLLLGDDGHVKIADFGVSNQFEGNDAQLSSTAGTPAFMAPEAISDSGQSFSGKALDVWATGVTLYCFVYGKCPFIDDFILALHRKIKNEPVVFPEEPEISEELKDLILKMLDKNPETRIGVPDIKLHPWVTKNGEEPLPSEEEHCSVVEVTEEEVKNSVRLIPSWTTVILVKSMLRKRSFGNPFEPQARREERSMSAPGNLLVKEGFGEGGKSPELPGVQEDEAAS

Compound: CCOc1nc(Nc2ccc(C(=O)N3CCOCC3)cc2OC)nc2[nH]ccc12
- fraction unbound [1]: 0.01
- Activity [2]: 214%
- Activity [3]: 101%
- Activity [4]: 80.2%
- Activity [5]: 28.3%
- Activity [6]: 100%
- Activity [7]: 92.7%
- Activity [8]: 95%
- Activity [9]: 94.5%
- Activity [10]: 99.3%
- Activity [11]: 90.3%
- Activity [12]: 101%
- Activity [13]: 98.5%
- Activity [14]: 102%
- Activity [15]: 97.7%
- Activity [16]: 101%
- Activity [17]: 88.9%
- Activity [18]: 101%
- Activity [19]: 46.5%
- Activity [20]: 116%
